Key:
THP-1 cells = assay: Cholesterol efflux assay; type: cell-based; details: compound final concentration 0.1 μM, 24 hours
Procedure: 3×10^5 THP-1 cells (ATCC No.: TIB-202) were disseminated in a 96-well white plate (Costar) followed by the addition of 200 nM Phorbol 12-Myristate 13-Acetate (Sigma) and culturing for 24 hours at 37° C. in a CO2 incubator. […] Following completion of culturing, 100 μl of PBS containing 0.2% bovine serum albumin (hereinafter referred to as “BSA”, (Sigma Chemical)) were added to each well to wash the cells. Next, 100 μl of RPMI 1640 containing Apolipoprotein A1 (hereinafter referred to as “ApoA1”, (Biogenesis)) at a final concentration of 10 μg/ml, or RPMI 1640 not containing ApoA1, were added to each well. […] Following completion of culturing, the plate was centrifuged for 5 minutes at 1,000 rpm and 4° C. 75 μl of medium in the form of the centrifuged supernatant were transferred to a 96-well Luma plate (Packard) and allowed to dry. […] 20 (Packard) were added to each well of the plate containing the washed cells and allowed to stand overnight, followed by measuring the radioactivity of the medium and cells with a scintillation counter (Top Count, Packard). Percent (%) efflux was calculated from the measured values using the calculation formula shown below. % efflux=(Specific radioactivity of medium(CPM)/75×100)/(Specific radioactivity of medium(CPM)+specific radioactivity of cells(CPM))×100 […]

[1] = target: T1, heterodimer comprising LXRα and RXRα (Homo sapiens, UniProt Q13133, A196R); assay: FRET assay of coactivator peptide binding to His-LXRα/FLAG-RXRα; type: biochemical
T1 construct: amino acid nos; made in house; host or cells: Escherichia coli BL21(DE3)
T1 sequence (Q13133 164-447 A196R): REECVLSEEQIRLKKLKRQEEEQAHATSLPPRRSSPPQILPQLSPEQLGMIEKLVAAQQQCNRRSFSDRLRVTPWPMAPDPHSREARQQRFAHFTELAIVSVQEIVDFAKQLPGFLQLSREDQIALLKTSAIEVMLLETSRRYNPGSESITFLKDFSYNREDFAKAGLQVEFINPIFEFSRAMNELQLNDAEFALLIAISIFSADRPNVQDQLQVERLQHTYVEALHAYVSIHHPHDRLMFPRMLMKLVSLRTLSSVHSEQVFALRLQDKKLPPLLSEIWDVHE
T1 sequence (P19793 201-462 partner limits assumed): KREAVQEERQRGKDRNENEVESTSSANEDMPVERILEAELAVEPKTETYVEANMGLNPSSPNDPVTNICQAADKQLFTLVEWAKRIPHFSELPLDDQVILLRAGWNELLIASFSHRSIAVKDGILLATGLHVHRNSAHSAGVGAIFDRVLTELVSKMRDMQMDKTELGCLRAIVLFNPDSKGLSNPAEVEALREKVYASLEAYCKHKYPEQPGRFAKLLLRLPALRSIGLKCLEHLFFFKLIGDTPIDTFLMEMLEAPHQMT
Procedure: 8 μl of LXRα reaction solution (0.05 μl of 4 μM His-LXRα and FLAG-RXRα mixed solution, 1.00 μl of 10×PBS (Sigma Chemical), 2.50 μl of 2 M KF (Wako Pure Chemical Industries), 0.10 μl of 10% NP40 (Sigma Chemical), 0.15 μl of anti-His tag antibody (CIS Bio International) and 4.20 μl of H2O) containing the His-LXRα and FLAG-RXRα prepared according to Example 1 were placed in a 384-well assay plate (Greiner Bio-One).
Next, 2 μl of a solution of Compound A (N-(2,2,2-trifluoroethyl)-N-{4-[2,2,2-trifluoro-1-hydroxy-1-(trifluoromethyl)ethyl]phenyl}benzene sulfonamide (Compound 12 described on page 55 of International Publication WO2000/054759) or Compound B (3-chloro-4-(3-(2-propyl-3-trifluoromethyl-6-benz-[4,5]-isooxazoloxy)propylthio)phenylacetic acid (a compound described in Example 20 on page 70 of International Publication WO1997/028137), dissolved to a concentration of 10 μM in dimethyl sulfoxide (hereinafter referred to as “DMSO”), were added to each well of a 384-well assay plate followed by incubating for 1 hour at room temperature.
Next, 10 μl of peptide reaction solution (1.00 μl of 5 μM peptide, 1.00 μl of 10×PBS, 2.50 μl of 2 M KF, 0.10 μl of 10% NP40, 0.20 μl of streptavidin (CIS Bio International) and 5.20 μl of H2O) were added to each well of the 384-well assay plate and incubated for 17 hours at 4° C. The peptide added here was comprising of any of the amino acid sequences of (a) to (g) below, and the amino acid of the N-terminal was biotinylated.
Following completion of incubation, the assay plate was subjected to excitation light at 337 nm using a fluorescent plate reader (Envision, Perkin-Elmer), and fluorescent absorbance at 665 nm and 620 nm was measured to determine the binding capacity between the protein and the peptide.
The value obtained by multiplying 1000 by the value resulting from dividing the measured value at 665 nm when applying excitation light at 337 nm by the measured value at 620 nm was determined. This value was then divided by the value determined by the same method when only DMSO was added without adding LXR ligand (Compound A or Compound B), and this value was then multiplied by 100 and indicated as the percentage relative to the control (% of control) as shown in Table 6.
The value for % of control determined here is the value, represented by a percentage, that indicates the ratio of the increase in the amount of coactivator bound to LXRα that results from adding LXR ligand, and the larger this value, the larger the amount of coactivator that binds to LXRα.
(1) According to the same method as Example 2) (using the following peptides (h) to (m), instead of the peptides (a) to (g) in Example 2), the amount of coactivator bound to the heterodimer LXRα and RXRα were determined.

[2] = target: T2, heterodimer comprising LXRβ and RXRα (Homo sapiens, UniProt P55055, DUP175-175); assay: FRET assay of coactivator peptide binding to His-LXRβ/FLAG-RXRα; type: biochemical
T2 construct: made in house; host or cells: Escherichia coli BL21(DE3)
T2 sequence (P55055 with tags, fused parts or gaps DUP175-175): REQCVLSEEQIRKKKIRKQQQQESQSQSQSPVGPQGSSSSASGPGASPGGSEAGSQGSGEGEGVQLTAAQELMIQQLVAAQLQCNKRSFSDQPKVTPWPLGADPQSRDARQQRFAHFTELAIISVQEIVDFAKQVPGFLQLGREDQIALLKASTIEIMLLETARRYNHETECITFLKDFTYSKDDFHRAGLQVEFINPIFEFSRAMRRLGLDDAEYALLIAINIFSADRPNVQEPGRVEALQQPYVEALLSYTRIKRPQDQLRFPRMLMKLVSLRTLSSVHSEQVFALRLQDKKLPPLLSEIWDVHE
T2 sequence (P19793 201-462 partner limits assumed): T1 sequence (P19793 201-462 partner limits assumed)
Procedure: 8 μl of LXRβ reaction solution (0.025 μl of 8 μM His-LXRβ and FLAG-RXRα mixed solution, 1.00 μl of 10×PBS, 2.50 μl of 2 M KF, 0.10 μl of 10% NP40, 0.15 μl of anti-His tag antibody and 4.23 μl of H2O) containing the His-LXRβ and FLAG-RXRα prepared according to Example 1 were placed in a 384-well assay plate (Greiner Bio-One) and measured according to the same method as Example 2 to determine the % of control (Table 6). There was no significant difference observed in the resulting values between Compound A and Compound B.
(2) […]: According to the same method in Example 3) (using the above peptides (h) to (m), instead of peptides (a) to (g) in Example 3), the amount of the coactivator bound to the heterodimer comprising LXRβ and RXRα were determined. There was no significant difference observed in the resulting values between Compound A and Compound B (Table 7).

[3] = Cynomolgus monkey consecutive daily administration study; type: in vivo, cynomolgus monkeys; details: for Relative value of LDL Cholesterol in Plasma (% of control group) / Relative value of TG in Plasma (% of control group): male cynomolgus monkeys, force fed, PG/Tween
Procedure: Five to seven year old, male cynomolgus monkeys in groups of 5 animals each were force fed only an administration base (Propylene glycol (Wako Pure Chemical Industries)/Tween 80 (Kao) (volume ratio: 4/1, hereinafter referred to as “PG/Tween”)) (hereinafter referred to as “the control group”), or Compound A or Compound B dissolved in PG/Tween in an amount of 3 mg/kg or 10 mg/kg once a day for 7 days between the hours of 8:00 and 10:00 AM. After fasting for 16 hours starting at 5:00 PM on the 7th day of administration, 1 mL of blood was collected from the cephalic vein with a heparinized syringe followed by centrifuging for 15 minutes at 4° C. and 5000 rpm to obtain plasma.
The levels of LDL cholesterol and triglycerides in the plasma were measured with an auto analyzer (Hitachi Model 7170) followed by calculation of the % of control group (Tables 8 and 9).

[4] = peptide ASC2 NR-1, 2 μl of 10 μM compound solution in DMSO
[5] = peptide ASC2 NR-2, 2 μl of 10 μM compound solution in DMSO
[6] = peptide PGC-1α, 2 μl of 10 μM compound solution in DMSO
[7] = peptide SRC1-2, 2 μl of 10 μM compound solution in DMSO
[8] = peptide SRC1-3, 2 μl of 10 μM compound solution in DMSO
[9] = peptide SRC1-4, 2 μl of 10 μM compound solution in DMSO
[10] = peptide TIF2, 2 μl of 10 μM compound solution in DMSO

O=S(=O)(c1ccccc1)N(CC(F)(F)F)c1ccc(C(O)(C(F)(F)F)C(F)(F)F)cc1 [Compound A, N-(2,2,2-trifluoroethyl)-N-{4-[2,2,2-trifluoro-1-hydroxy-1-(trifluoromethyl)ethyl]phenyl}benzenesulfonamide]
relative cholesterol efflux activity (% efflux, Compound A at 1 μM = 100) (THP-1 cells): 86% | effect on amount of coactivator bound to LXRα (result in words) ([1]; Example 2, peptides (a) to (g)): increases the amount of coactivator bound to LXRα | LXRα (% of control) ([1]; peptide ACTR NRB3, same method as Example 2): 167 % of control | LXRα (% of control) [1, 4]: 155.8 % of control | LXRα (% of control) [1, 5]: 254.0 % of control | LXRα (% of control) ([1]; peptide DAX1, same method as Example 2): 158 % of control | LXRα (% of control) ([1]; peptide PERC NRB2, same method as Example 2): 127 % of control | LXRα (% of control) [1, 6]: 361.7 % of control | LXRα (% of control) ([1]; peptide PNRC, same method as Example 2): 140 % of control | LXRα (% of control) [1, 7]: 267.0 % of control | LXRα (% of control) [1, 8]: 181.3 % of control | LXRα (% of control) [1, 9]: 207.3 % of control | LXRα (% of control) [1, 10]: 266.7 % of control | LXRα (% of control) ([1]; peptide TIF2 NRB2, same method as Example 2): 268 % of control | LXRα (% of control) ([1]; peptide TRAP220, same method as Example 2): 131 % of control | LXRβ (% of control) ([2]; peptide ACTR NRB3, same method as Example 3): 129 % of control | LXRβ (% of control) [2, 4]: 114.5 % of control | LXRβ (% of control) [2, 5]: 120.4 % of control | LXRβ (% of control) ([2]; peptide DAX1, same method as Example 3): 116 % of control | LXRβ (% of control) ([2]; peptide PERC NRB2, same method as Example 3): 104 % of control | LXRβ (% of control) [2, 6]: 191.0 % of control | LXRβ (% of control) ([2]; peptide PNRC, same method as Example 3): 109 % of control | LXRβ (% of control) [2, 7]: 120.4 % of control | LXRβ (% of control) [2, 8]: 110.6 % of control | LXRβ (% of control) [2, 9]: 154.6 % of control | LXRβ (% of control) [2, 10]: 107.9 % of control | LXRβ (% of control) ([2]; peptide TIF2 NRB2, same method as Example 3): 125 % of control | LXRβ (% of control) ([2]; peptide TRAP220, same method as Example 3): 111 % of control | effect on plasma LDL cholesterol and triglyceride concentration (result in words) ([3]; cynomolgus monkeys, 7 days administration): increase LDL cholesterol concentration and triglyceride concentration in the plasma | Relative value of LDL Cholesterol in Plasma (% of control group) ([3]; 3 mg/kg once a day for 7 days): 137% | Relative value of TG in Plasma (% of control group) ([3]; 3 mg/kg once a day for 7 days): 429% | Relative value of LDL Cholesterol in Plasma (% of control group) ([3]; 10 mg/kg once a day for 7 days): 207% | Relative value of TG in Plasma (% of control group) ([3]; 10 mg/kg once a day for 7 days): 661%
